Assay results: patent US20250388571A1, “AMP-ACTIVATED PROTEIN KINASE MODULATOR COMPOUNDS AND USES THEREOF” (Biolexis Therapeutics, Inc., priority 2024, published 2025)
“Also recorded” adds a separate entry of the source.

Legend:
[1] = test system: Human white preadipocyte (HWP) cells; assay: Glucose uptake assay, human white preadipocyte cells; assay type: cell-based
Description: (§1) FIGS. 5-8 show results for glucose update assays in Human white preadipocyte (HWP) cells (Promocell, cat. No. C-12735) when treated with compound I-11 (FIG. 5), compound I-7 (FIG. 6), MK-8722 (FIG. 7), and PF-06409577 (FIG. 8). HWP cells (subcutaneous upper arm of obese patient) were starved for 3 hours in DMEM without FBS, treated with the components noted above in […] DMEM without FBS/glucose for 1 hour, and glucose uptake was detected using a glucose uptake kit (Promega). […] The bars show (from left to right) concentrations of 100 μM, 33 μM, 11 μM, 3.7 μM, 1.23 μM, 0.41 μM, 0.14 μM, 0.045 μM, 0.015 μM, 0.005 μM, 0 μM, and insulin.
as §1, with “9-12” for “5-8”, “9),” for “5),”, “10),” for “6),”, “11),” for “7),”, “12).” for “8).”, “(abdomen cells)” for “(subcutaneous upper arm of obese patient)”
(§2) Human skeletal myoblasts were obtained (Thermofisher; BYU) and cultured in DMEM/F12 medium with 10% FBS. For differentiation, 2% horse serum low glucose DMEM medium was employed for 72 hours. Human cardiomyocytes cells (HCM cells; Promocell) were cultured in myocyte growth medium (Promocell). Human preadipocyte HWP-c cells (Promocell) were obtained from upper arm of diabetic II donor. Human preadipocyte HWP-c cells (Promocell) were obtained from abdomen of diabetic II donor. For differentiating human preadipocytes, cells were cultured in preadipocyte growth medium to total confluency stage. The growth medium was replaced with preadipocyte differentiation medium for 72 hours, then changed to PromoCell adipocyte nutrition medium to complete the differentiation process. THLE-2 cells were cultured in BEGM from Lonza/Clonetics Corporation, Walkersville, MD 21793 (BEGM Bullet Kit; CC3170). HepG2, L6 and C2Cl2 cells were cultured in EMEM medium.
(§3) After differentiation myoblasts, preadipocyte cells were starved by removing the medium and adding 100 μL DMEM without serum. The medium was then replaced with 100 μL DMEM±1 μM insulin at indicated concentration of representative compounds without serum or glucose. The cells were then incubated for 1 hour at 37° C. in 5% CO2. The cells were then removed from the medium and 50 μL of 0.1 mM 2DG in PBS was added. Cells were incubated for 30 minutes at 25° C. 25 μL of Stop Buffer was added and samples were mixed. 25 μL of Neutralization Buffer was then added and mixed. 100 μL of 2DG6P Detection Reagent was then added and mixed. Samples were then incubated for 1 hour at 25° C. Luminescence was then recorded with 0.3-1 second integration on a luminometer.

[2] = test system: human cardiomyocyte cells (HCM); assay: Glucose uptake assay, human cardiomyocyte cells; assay type: cell-based; conditions: for AMPK activation activity (glucose uptake assay): 10 doses 100 μM to 0.005 μM
Description: FIGS. 17-19 show results for glucose update assays in human cardiomyocyte cells (“HCM”-healthy donor) (Promocell, cat. no. C-12810) when treated with compound I-11 (FIG. 17), compound I-7 (FIG. 18), and PF-06409577 (FIG. 19). After recovered HCM cells for 4 days, cells were starved for 3 hours in high glucose DMEM without FBS, treated with the components noted above in DMEM without FBS/glucose for 1 hour, and glucose uptake was detected using a glucose uptake kit (Promega). […] The bars show (from left to right) concentrations of 100 μM, 33 μM, 11 μM, 3.7 μM, 1.23 μM, 0.41 μM, 0.14 μM, 0.045 μM, 0.015 μM, 0.005 μM, 0 μM, and insulin.
FIGS. 20-22 show results for glucose update assays in human cardiomyocyte cells (“HCM”-diabetic donor) (Promocell, cat. no. C-12810) when treated with compound I-11 (FIG. 20), compound I-7 (FIG. 21), and PF-06409577 (FIG. 22). After recovered HCM cells for 4 days, cells were starved for 3 hours in high glucose DMEM without FBS, treated with the components noted above in DMEM without FBS/glucose for 1 hour, and glucose uptake was detected using a glucose uptake kit (Promega). […] The bars show (from left to right) concentrations of 100 μM, 33 μM, 11 μM, 3.7 μM, 1.23 μM, 0.41 μM, 0.14 μM, 0.045 μM, 0.015 μM, 0.005 μM, 0 μM, and insulin.
as §2, §3

[3] = test system: AMPK signal pathway in HSKM cells; assay: Western blot assay, HSKM cells; assay type: cell-based, human
[4] = test system: AMPK signaling in human liver cells; assay: Western blot assay, human liver cells (Biological Example 1); assay type: cell-based
Description: After treatment, cells were analyzed using a glucose uptake assay and a western blot assay for human skeletal myoblasts, human cardiomyocytes cells, human hepatocytes-THLE-2 cells, preadipocyte HWP-c cells.
(§4) Samples for immunoblotting studies were prepared for electrophoresis by adding in a final concentration of 1× Laemmli loading buffer (supplemented with 5% 2-mercaptoethanol). Samples were then electrophorized by SDS-PAGE (4-15% or 4-20% Criterion TGX Precast gel, Bio-Rad) at a constant voltage within the range of 140V. Proteins were transferred to a nitrocellulose membrane (Bio-Rad) using the Trans-Blot Turbo transfer system (Bio-Rad). Membranes were blocked with 5% BSA in TBST for a minimum of 1 hour at room temperature before incubating with the following primary antibodies: • Phospho-AMPKα (Thr172) (40H9) Rabbit mAb (CST, cat no: 2535S), • AMPKα Antibody (CST, cat no: 2532S) • Phospho-Raptor (Ser792) Antibody (CST, cat no: 2083S) • Raptor (24C12) Rabbit mAb (CST, cat no: 2280S) • Phospho-Acetyl-CoA Carboxylase (Ser79) Antibody (CST, cat no: 3661S) • Acetyl-CoA Carboxylase Antibody (CST, cat no: 3662S) • AMPKα2 Antibody (CST, cat no: 2757S) • AMPKβ1 antibody (CST, cat no: 12063) • AMPKβ2 Antibody (CST, CST, cat no: 4148S) • AMPKγ3 Antibody (CST, cat no: 2550S).

[5] = test system: AMPK signal pathway in L6 cells; assay: Western blot assay, L6 cells
Description: Samples for immunoblotting studies were prepared for electrophoresis by adding in a final concentration of 1× Laemmli loading buffer (supplemented with 5% 2-mercaptoethanol). Samples were then electrophorized by SDS-PAGE (4-15% or 4-20% Criterion TGX Precast gel, Bio-Rad) at a constant voltage within the range of 140V. Proteins were transferred to a nitrocellulose membrane (Bio-Rad) using the Trans-Blot Turbo transfer system (Bio-Rad). Membranes were blocked with 5% BSA in TBST for a minimum of 1 hour at room temperature before incubating with the following primary antibodies: • Phospho-AMPKα (Thr172) (40H9) Rabbit mAb (CST, cat no: 2535S), • AMPKα Antibody (CST, cat no: 2532S) • Phospho-Raptor (Ser792) Antibody (CST, cat no: 2083S) • Raptor (24C12) Rabbit mAb (CST, cat no: 2280S) • Phospho-Acetyl-CoA Carboxylase (Ser79) Antibody (CST, cat no: 3661S) • Acetyl-CoA Carboxylase Antibody (CST, cat no: 3662S) • AMPKα2 Antibody (CST, cat no: 2757S) • AMPKβ1 antibody (CST, cat no: 12063) • AMPKβ2 Antibody (CST, CST, cat no: 4148S) • AMPKγ3 Antibody (CST, cat no: 2550S). […]
After differentiation of cells (e.g., HSKM, C2C12, L6) for 5 days, medium was changed to DHEM without FBS and glucose for starving cells for 2 hours. […] The resultant reaction mixture was then assayed and semi-quantitative histogram analysis of Western Blotting (signal value) was used to determine results.

[6] = test system: AMPK signal pathway in human liver cells-HepG2; assay: Western blot assay, HepG2 cells
Description: as §4

O=c1[nH]c(-c2c[nH]c3cc(F)c(-c4ccc(C5(O)CCC5)cc4)c(F)c23)no1 [Compound I-11, 3-(4,6-difluoro-5-(4-(1-hydroxycyclobutyl)phenyl)-1H-indol-3-yl)-1,2,4-oxadiazol-5(4H)-one]
dose dependence of glucose uptake (printed: activates insulin) ([1]; HWP cells, subcutaneous upper arm of obese patient, 100 μM to 0.005 μM, 1 hour): dose dependent manner | glucose uptake ([1]; human adipocyte cells / HWP-c cells, donor site not stated): induced glucose uptake; also recorded: dosage-dependent manner | AMPK activation activity (glucose uptake assay) ([2]; diabetic donor): did not show AMPK activation activity | glucose uptake ([2]; donor not stated): did not induce glucose uptake in dose-dependent manner; also recorded: did not activate glucose uptake | AMPK activation activity (glucose uptake assay) ([2]; healthy donor): did not show AMPK activation activity | AMPK isoform expression ([3]; HSKM cells): increased AMPKα2β1γ3 expression | potency compared with reference compound MK-8722 (p-ACC, p-AMPK) ([3]; HSKM cells): more potency activity | p-ACC and p-AMPK induction ([3]; HSKM cells, 1 hour): dosage-dependent manner | p-AMPK, p-ACC, and p-Raptor expression ([3]; some high dosage groups, cell type not given): could induce | AMPK signaling activation [4]: dose-dependent manner | pAMPK/pACC/AMPKα2γ3 expression [5]: can also induce | p-AMPK/p-ACC and AMPKα2β1β2γ3 activation [6]: dosage-dependent manner
